Data as given in patent publication US20160346255A1, “METHODS, AGENTS AND COMPOSITIONS FOR TREATMENT OF INFLAMMATORY CONDITIONS” (Betanien Hospital, priority 2014, published 2016).
Like-named read-outs stand apart in the source and are kept apart here. Non-standard residues stand in square brackets, D forms with d. Residues, ends and D or L forms follow the SMILES beside them. d(hArg(Et2)) = CCN=C(NCC)NCCCC[C@@H](N)C(=O)O; hArg(Et2) = CCN=C(NCC)NCCCC[C@H](N)C(=O)O; dPhe(4-Cl) = N[C@H](Cc1ccc(Cl)cc1)C(=O)O; d2Nal = N[C@H](Cc1ccc2ccccc2c1)C(=O)O; dCit = NC(=O)NCCC[C@@H](N)C(=O)O; d3Pal = N[C@H](Cc1cccnc1)C(=O)O

What was measured:
Patient with Lupus = test: Lupus patient treated with degarelix (and earlier therapies); assay type: in vivo, human; details: for Reducing the pain in their extremities / Side effects: previous therapy
Experimental: Example of Treating a Patient with Lupus with a GnRH Antagonist
Due to their painful condition, they have been followed up by a pain clinic. They were offered a tricyclic antidepressant, amitriptyline 25 mg in March 2014 for their painful condition.
Therefore, we decided to offer […] degarelix. GnRH antagonists have shown anti-inflammatory effects and therefore we considered that degarelix, a depot GnRH antagonist, may have a therapeutic effect in lupus. 09.15.14, […] received […] loading dose of degarelix, 240 mg s.c.
They received their second dose of degarelix in October 2014, 80 mg s.c. They continue on 80 mg s.c. every two weeks.

[1] = tested on: Patient with Rheumatoid Arthritis; test: Rheumatoid arthritis patient treated with ganirelix; assay type: in vivo, human; details: at 4 months
Experimental: (§1) • person with seropositive rheumatoid arthritis with disease duration of 10 years. • Fulfilled ACR 2010 classification criteria for rheumatoid arthritis.
• Had tried almost all available rheumatoid arthritis therapies available previously without effect. • Offered experimental GnRH antagonist therapy, ganirelix 0.75 mg s.c. daily (0.25 mg s.c. three times a day).
• Disease activity score (DAS) reduction from 5.5 to 2.2 (remission). • A DAS reduction of 0.6 units is defined as a clinical response to treatment (1). • […] ESR decreased from 28 mm to 19 mm, with a normalization of their CRP from 23 mg/L to 5 mg/L. This is supported by the decrease in their anti-cyclic citrullinated peptide (CCP) antibodies from 27 μ/mL to 14 μ/mL.

Patient with Tendonitis = test: Tendonitis patient treated with ganirelix injection; assay type: in vivo, human; details: 1.5 mg injected around the affected tendon; 2 week post injection
Experimental: • person diagnosed with tendonitis of the elbow with ultrasound confirming tendonitis.
• Treated with an injection of GnRH antagonist, ganirelix 1.5 mg, around the affected tendon.
• Before and 2 week post injection ultrasound images are taken to show a decrease in tendonitis of the elbow. […] Such injections may be administered over the long-term, for example every 3 months to maintain optimal effect.

patients with IBD = details: week 2 after an infusion; cited from earlier work
[2] = tested on: Patient with Ankylosing Spondylitis; test: Ankylosing spondylitis patient treated with degarelix (and earlier TNF inhibitors); assay type: in vivo, human; details: ankylosing spondylitis patient
Text: Example of Treating a Patient with Ankylosing Spondylitis with a GnRH Antagonist
Diagnosed with ankylosing spondylitis in 1984, HLAB27 positive, with repeated iridocyclitis. Used non-steroidal anti-inflammatory drugs previously. They were offered the TNFα inhibitor Golilimumab in 2010. Their disease activity score was 8.9 in October 2010 (see below for explanation of disease activity score) on initiating Golilimumab; by the June 2012 this score had reduced to 6.6, but by May 2013 the effect had worn off and their score was 7.6. May 2013, they initiated Enbrel treatment, but their disease activity increased from 7.6 to 8.3. Due to their poor response to TNFα therapy, they were offered the GnRH antagonist degarelix in September 2014.
Disease activity in ankylosing spondylitis is measured by the BASDAI (Bath Ankylosing Spondylitis Disease Activity Index (1)), which has been extensively validated in clinical trials, 2, 3 and is one of the most commonly used outcome measures in clinical trials. This is a composite index that evaluates fatigue, axial and peripheral pain, stiffness and enthesopathy. Their BASDAI was at 8.7 at baseline. In September 2014 they received their first dose of degarelix 240 mg s.c. By 2 weeks, their BASDAI had reduced to 6.8, and by 6 weeks it had reduced to 5.8. This is the lowest BASDAI score they have ever had since we first started using this method of assessment 4 years ago in 2010. Their morning stiffness lasted 4 hours at baseline, by 6 weeks their morning stiffness had reduced to 2 hours. They had their second dose of degarelix 80 mg s.c in October 2014. Lumbar flexion and maximum arm abduction were increased after 6 weeks of treatment.
Response to therapy in clinical practice is defined as improvement of 2 units or 50% on a 0-10 scale of the BASDAI, and expert opinion that the treatment should be continued. Their reduction by 6 weeks was 2.9 units, and 7.1 units with an 82% BASDAI score improvement by 9 weeks, and we shall continue treatment. A BASDAI 50% improvement is defined as a major clinical response. […] For comparison, approximately 50-60% of patients achieve a BASDAI 50 by 12 weeks on TNF inhibitors (4). Their ESR has decreased from 46 mm to 23 mm, which is their lowest ESR reading in 19 years. […] By 9 weeks of GnRH antagonist therapy, their kidney function has normalized, and fasting glucose reduced from 7.4 to 6.5 mmol/L. By 3 months, the effect on their ankylosing spondylitis remained, creatinine was at 98 μmol/L, with a glomerular filtration rate of 66 ml/min/1.73 m^2 in December 2014.

[3] = tested on: Patient with Rheumatoid Arthritis; test: Rheumatoid arthritis patient treated with cetrorelix; assay type: in vivo, human; details: at 12 weeks
Experimental: as §1
• Had tried all therapies available previously without effect. • Offered experimental GnRH antagonist therapy, cetrorelix in 0.5 mg s.c. daily in October 2014, then 0.75 mg s.c. daily in December 2014.

mice = test: Mouse study of preventing age related inflammation with cetrorelix; assay type: in vivo; details: 0.5 mg/kg daily with or without gonadal hormone replacement
Experimental: An animal study is conducted with 40 fertile female mice aged approximately 6-20 months in a control group (group 1) receiving placebo, 40 age and sex matched mice receiving a drug that reduces the activity of GnRH (group 2), such as cetrorelix 0.5 mg/kg daily, and 40 age and sex matched mice receiving the same GnRH inhibitor as group 2, but with the additional replacement of gonadal hormone (oestrogen) to age adjusted pre-chosen levels. All mice are followed prospectively, and evaluated for systemic inflammation markers, atherosclerosis, osteoporosis, LDL, and age at death. The same three interventions and assessments are carried out in three groups of male mice with 40 male mice in each group, aged approximately 6-20 months, replacing the gonadal hormone testosterone to pre-chosen levels in group 3. Mice treated with a drug that reduces the activity of GnRH, such as cetrorelix 0.5 mg/kg daily with or without the replacement of gonadal hormone (preferably with) reach a higher age at death compared with mice in the placebo groups. These mice also show less atherosclerosis, osteoporosis and systemic inflammation than mice in the placebo groups.

[4] = tested on: patients with active longstanding RA; test: Double-blinded randomised study of cetrorelix in active longstanding RA (NCT00667758, AGRA); assay type: in vivo, human; details: preceding the P1NP reduction at day 10
Text: The manuscript by Kass et al., 2014 Scand. J. Rheumatol., 43 (1), 22-27, describes a short term study of a GnRH antagonist, Cetrorelix (AGRA study). This is the first human study of GnRH antagonist treatment in an inflammatory disease. […] However, some patients did show some response and the response was thought to be limited to patients with above normal levels of LH and FSH (Abstract to the 13th annual American College of Rheumatology meeting). […] However, current TNFα inhibiting therapy in rheumatoid arthritis is long term. […] There are several examples in medicine that give positive immediate effects in disease but are unsuitable for long term use, either due to lack of efficacy, safety or both.
In this double-blinded, single-site study in Norway (ClinicalTrials.gov NCT00667758), 99 patients with active longstanding RA, were randomised to predefined intention-to-treat populations using computer-generated allocation (1:1) in dynamic blocks stratified for sex. Patients were assigned to subcutaneous cetrorelix (n=48) (5 mg days 1-2, 3 mg days 3-5) or placebo (n=51). P1NP was measured on day 10. We investigated serum P1NP between groups, a predefined secondary endpoint. Detailed efficacy and safety data are presented separately.

[5] = tested on: Patient with Osteoarthritis; test: Intra-articular cetrorelix in a patient with osteoarthritis; assay type: in vivo, human; details: 1 mg injected into both knees; 2 week post injection
Experimental: • person with osteoarthritis of both knees diagnosed by X-ray 10 years ago. • Has had synovitis secondary to osteoarthritis in both knees for the last month, confirmed by synovitis on ultrasound. • In order to treat the secondary inflammation as a result of their knee osteoarthritis, they are offered intra-articular GnRH antagonist treatment, for example cetrorelix 1 mg injected into both knees. Subcutaneous cetrorelix for injection can be used. • Before and 2 week post injection ultrasound images are taken to show a decrease in synovitis in the knee joint.

[6] = tested on: patients with active longstanding RA; details: 5 days of treatment; Kass et al. 2014; cited from earlier work
[7] = tested on: systemic sclerosis patients; details: over 12 months; increased from 7; cited from earlier work
[8] = tested on: patients with psoriasis who were taking lithium; details: 15 patients, after 10 weeks, cited from earlier work

CC(C)C[C@H](CN)CC(=O)O [pregabalin]
Effect on pain (Patient with Lupus; up to 150 mg×2): no effect

CCN=C(NCC)NCCCC[C@H](NC(=O)[C@H](CC(C)C)NC(=O)[C@@H](CCCCNC(=NCC)NCC)NC(=O)[C@H](Cc1ccc(O)cc1)NC(=O)[C@H](CO)NC(=O)[C@@H](Cc1cccnc1)NC(=O)[C@@H](Cc1ccc(Cl)cc1)NC(=O)[C@@H](Cc1ccc2ccccc2c1)NC(C)=O)C(=O)N1CCC[C@H]1C(=O)N[C@H](C)C(N)=O [ganirelix] (Ac-[d2Nal][dPhe(4-Cl)][d3Pal]SY[d(hArg(Et2))]L[hArg(Et2)]P[dA]-NH2)
Disease activity score (DAS) ([1]; 0.75 mg s.c. daily, remission, from 5.5): 2.2 | Anti-cyclic citrullinated peptide (CCP) antibodies ([1]; from 27 μ/mL): 14 μ/mL | ESR ([1]; from 28 mm): 19 mm | Rheumatoid factor ([1]; from 113 kIU/L): 75 kIU/L | CRP ([1]; normalization from 23 mg/L): 5 mg/L | Tendonitis of the elbow on ultrasound (Patient with Tendonitis): decrease

COc1c(C)c2c(c(O)c1C/C=C(\C)CCC(=O)OCCN1CCOCC1)C(=O)OC2 [mycophenolate mofetil]
Reducing the pain in their extremities (Patient with Lupus): not effective | Side effects (Patient with Lupus): intolerable side effects such as mouth ulcers

infliximab: anti-TNFα monoclonal antibody
Fecal calprotectin concentration (patients with IBD): decreases significantly

Golilimumab: TNFα inhibitor Golilimumab
Disease activity score (BASDAI) ([2]; June 2012, 8.9 on initiating in October 2010): 6.6 | Disease activity score (BASDAI) ([2]; May 2013, effect had worn off): 7.6

Enbrel
Disease activity score (BASDAI) ([2]; treatment initiated May 2013 at 7.6): 8.3

CC(=O)N[C@H](Cc1ccc2ccccc2c1)C(=O)N[C@H](Cc1ccc(Cl)cc1)C(=O)N[C@H](Cc1cccnc1)C(=O)N[C@@H](CO)C(=O)N[C@@H](Cc1ccc(O)cc1)C(=O)N[C@H](CCCNC(N)=O)C(=O)N[C@@H](CC(C)C)C(=O)N[C@@H](CCCNC(=N)N)C(=O)N1CCC[C@H]1C(=O)N[C@H](C)C(N)=O [cetrorelix] (Ac-[d2Nal][dPhe(4-Cl)][d3Pal]SY[dCit]LRP[dA]-NH2)
Disease activity score (DAS) ([3]; 0.5 then 0.75 mg s.c. daily, from 6.1): 5.5 | CRP ([3]; from 41 mg/L): 18 mg/L | Rheumatoid factor ([3]; from 137 kIU/L): 111 kIU/L | ESR ([3]; normalized from 35 mm): 28 mm | Age at death vs placebo groups (mice): higher | Atherosclerosis vs placebo groups (mice): less | Osteoporosis vs placebo groups (mice): less | Systemic inflammation vs placebo groups (mice): less | Disease activity markers and TNF-α (log pg/mL) [4]: significant reductions | Synovitis in the knee joint on ultrasound [5]: decrease | Primary end-point with regard to clinical response [6]: did not meet the primary end-point | TNFα [6]: possible reduction

NCC1(CC(=O)O)CCCCC1 [gabapentin]
Effect on pain (Patient with Lupus; 100 mg×3 up to 1200 mg×3): no effect

Cn1cnc([N+](=O)[O-])c1Sc1ncnc2nc[nH]c12 [azathioprine]
Reducing the pain in their extremities (Patient with Lupus): not effective | Side effects (Patient with Lupus): intolerable side effects such as mouth ulcers

O=P1(N(CCCl)CCCl)NCCCO1 (stereo not drawn) [cyclophosphamide]
Digital ulcers, average number [7]: 9 ulcers

O[C@H]1[C@H](O)[C@@H](O)[C@H](O)[C@@H](O)[C@H]1O [inositol]
Median PASI score reduction [8]: 35% | Median PASI score reduction ([8]; median pretreatment PASI 4.9): 1.7 points

CN(C)CCC=C1c2ccccc2CCc2ccccc21 [amitriptyline]
Effect on pain (Patient with Lupus; 25 mg, March 2014): no effect | Effect on pain (Patient with Lupus; 50 mg, April 2014): no effect | Effect on pain (Patient with Lupus; 150 mg daily): no effect

CN(Cc1cnc2nc(N)nc(N)c2n1)c1ccc(C(=O)N[C@@H](CCC(=O)O)C(=O)O)cc1 [methotrexate]
Reducing the pain in their extremities (Patient with Lupus): not effective | Side effects (Patient with Lupus): intolerable side effects such as mouth ulcers
